The values below come from ChEMBL document CHEMBL1156099, “Pyrazolo[1,5-a]pyrimidine-based inhibitors of HCV polymerase” (Bioorg Med Chem Lett, 2009).

As a reminder, the IC50 is the concentration that gives 50% inhibition.

Activity calls are given as the source filed them. No cut-off for these calls is given here.

For one assay, the system named is Hepatitis C virus. Description: Antiviral activity against HCV infected in human hepatoma cells by RNA replicon assay. The format is functional, organism-based. The following applies: Hepacivirus hominis. In general terms: Replicon systems follow genome replication, usually without infectious particles.
Turning to `O=C(O)c1cnn2c(C3CCCCC3)c(-c3ccc(F)cc3)cnc12`, the result was Active. Consider `O=C(O)c1cnn2c(C3CCCCC3)c(-c3ccc(OCc4ccccc4)cc3)cnc12`, for which the result was Active.

As to `c1ccc(COc2ccc(-c3cnc4c(-c5nnn[nH]5)cnn4c3C3CCCCC3)cc2)cc1`, the result was Active.

Tested on in a further assay: not listed separately
Description: Inhibition of HCV recombinant NS5B Cdelta21 RdRp expressed in Escherichia coli assessed as [3H]GTP incorporation after 3 hrs by scintillation proximity assay-based RNA polymerase assay. More on the design: species or system Hepacivirus hominis.
Conditions: not given
(SPA uses beads or plates that emit light when radiolabelled molecules are held near them.)
On to `c1ccc(COc2ccc(-c3cnc4c(-c5nnn[nH]5)cnn4c3-c3ccccc3)cc2)cc1`, for which the IC50 entry is given as “Not Active”. `NC(=O)c1cnn2c(C3CCCCC3)c(-c3ccc(OCc4ccccc4)cc3)cnc12`: the IC50 result is reported as “Not Active”. Turning to `O=S1(=O)CCC(c2c(-c3ccc(OCc4ccccc4)cc3)cnc3c(-c4nnn[nH]4)cnn23)CC1`, the half-maximal inhibitory concentration (IC50) entry is “Not Active”. Consider `c1ccc(COc2ccc(-c3cnc4c(-c5nnn[nH]5)cnn4c3C3CC3)cc2)cc1`, for which the IC50 result is “Not Active”.

Still in this assay, the particulars now being: read-out: IC50.
On to `FC(F)(F)c1cccc(COc2ccc(-c3cnc4c(-c5nnn[nH]5)cnn4c3C3CCCCC3)cc2)c1`, for which the 50% inhibitory concentration (IC50) stood at 400 nM. For `c1cc(-c2cnc3c(-c4nnn[nH]4)cnn3c2C2CCCCC2)ccc1OC1CCCCC1`, the IC50 came out at 400 nM. `CC(C)CCc1c(-c2ccc(OCc3ccccc3)cc2)cnc2c(-c3nnn[nH]3)cnn12`: the concentration for half-maximal inhibition (IC50) was determined as 4600 nM. Same read-out and setting: for `O=C(O)c1cnn2c(C3CCCCC3)c(-c3ccc(F)cc3)cnc12` the value was 930 nM; for `COC(=O)c1ccc(COc2ccc(-c3cnc4c(-c5nnn[nH]5)cnn4c3C3CCCCC3)cc2)cc1`, 190 nM; for `CS(=O)(=O)c1cccc(Oc2ccc(-c3cnc4c(-c5nnn[nH]5)cnn4c3C3CCCCC3)cc2)c1`, 200 nM. Same read-out and setting: under `CS(=O)(=O)NC(=O)c1cnn2c(C3CCCCC3)c(-c3ccc(OCc4ccccc4)cc3)cnc12` stands 1600 nM; under `COc1cccc(COc2ccc(-c3cnc4c(-c5nnn[nH]5)cnn4c3C3CCCCC3)cc2)c1`, 600 nM; under `O=C(O)c1ccc2c(c1)nc(-c1ccc(OCc3ccccc3)cc1)n2C1CCCCC1`, 530 nM. For `O=C(O)c1cc2nc(-c3ccc(Cl)cc3)cc(-c3ccc(Oc4ccccc4)cc3)n2n1`, the IC50 amounted to 6000 nM.

Consider `c1ccc(-c2ccc(-c3cnc4c(-c5nnn[nH]5)cnn4c3C3CCCCC3)cc2)cc1`, for which the IC50 amounted to 2800 nM. On the same count and under the same terms, under `O=C(NO)c1cnn2c(C3CCCCC3)c(-c3ccc(OCc4ccccc4)cc3)cnc12` stands 1900 nM; under `O=C(N[C@@H](Cc1ccccc1)C(=O)O)c1cnn2c(C3CCCCC3)c(-c3ccc(F)cc3)cnc12`, 2000 nM; under `O=C(N[C@@H](Cc1c[nH]c2ccc(O)cc12)C(=O)O)c1cnn2c(C3CCCCC3)c(-c3ccc(F)cc3)cnc12`, 11 nM. For `O=C(Nc1nnn[nH]1)c1cnn2c(C3CCCCC3)c(-c3ccc(OCc4ccccc4)cc3)cnc12`, the IC50 amounted to 670 nM. Take `O=C(O)c1cnn2c(C3CCCCC3)c(-c3ccc(OCc4ccccc4)cc3)cnc12`: the IC50 is 590 nM.

For the molecule `c1ccc(COc2ccc(-c3cnc4c(-c5nnn[nH]5)cnn4c3C3CCCCC3)cc2)cc1`, the IC50 stood at 450 nM. As for `COC(=O)c1cccc(COc2ccc(-c3cnc4c(-c5nnn[nH]5)cnn4c3C3CCCCC3)cc2)c1`, the IC50 was found to be 220 nM.

With `COc1cccc(Oc2ccc(-c3cnc4c(-c5nnn[nH]5)cnn4c3C3CCCCC3)cc2)c1`, the IC50 came to 400 nM.

Consider `O=C(N[C@H](Cc1ccc(O)cc1)C(=O)O)c1cnn2c(C3CCCCC3)c(-c3ccc(F)cc3)cnc12`, for which the IC50 came out at 960 nM. For `CC(C)Cc1c(-c2ccc(OCc3ccccc3)cc2)cnc2c(-c3nnn[nH]3)cnn12`, the IC50 worked out at 6000 nM.

In the case of `O=C(NS(=O)(=O)c1ccccc1)c1cnn2c(C3CCCCC3)c(-c3ccc(OCc4ccccc4)cc3)cnc12`, the IC50 was 760 nM. With `c1ccc(COc2ccc(-c3cnc4c(-c5ncn[nH]5)cnn4c3C3CCCCC3)cc2)cc1`, the 50% inhibitory concentration (IC50) came to 5700 nM. As for `c1ccc(COc2ccc(-c3cnc4c(-c5nnn[nH]5)cnn4c3C3CCOCC3)cc2)cc1`, the IC50 stood at 12000 nM. Take `OCc1cnn2c(C3CCCCC3)c(-c3ccc(OCc4ccccc4)cc3)cnc12`: the IC50 came out at 12500 nM. Consider `Cn1nnnc1-c1cnn2c(C3CCCCC3)c(-c3ccc(OCc4ccccc4)cc3)cnc12`, for which the IC50 was found to be 50000 nM. As for `O=C(N[C@@H](Cc1ccc(O)cc1)C(=O)O)c1cnn2c(C3CCCCC3)c(-c3ccc(F)cc3)cnc12`, the IC50 was determined as 20 nM. Still for that read-out and setting: for `c1ccc(COc2ccc(-c3cnc4c(-c5nnn[nH]5)cnn4c3C3CCSCC3)cc2)cc1` the value was 3400 nM; for `c1cc(COc2ccc(-c3cnc4c(-c5nnn[nH]5)cnn4c3C3CCCCC3)cc2)ccn1`, 710 nM. In the case of `Cc1c(-c2ccc(OCc3ccccc3)cc2)cnc2c(-c3nnn[nH]3)cnn12`, the 50% inhibitory concentration (IC50) amounted to 12500 nM. `O=C(O)c1ccc2c(c1)nc(-c1ccoc1)n2C1CCCCC1`: the IC50 was determined as 1600 nM. As for `NC(=O)[C@H](Cc1ccc(O)cc1)NC(=O)c1cnn2c(C3CCCCC3)c(-c3ccc(F)cc3)cnc12`, the IC50 was determined as 24 nM. Regarding `O=C(N[C@@H](Cc1c[nH]c2ccccc12)C(=O)O)c1cnn2c(C3CCCCC3)c(-c3ccc(F)cc3)cnc12`, the concentration for half-maximal inhibition (IC50) turned out to be 20 nM.

Take `CC(C)c1c(-c2ccc(OCc3ccccc3)cc2)cnc2c(-c3nnn[nH]3)cnn12`: the IC50 came out at 8600 nM. As for `NCCCC[C@H](NC(=O)c1cnn2c(C3CCCCC3)c(-c3ccc(F)cc3)cnc12)C(=O)O`, the IC50 was 480 nM. Same read-out and setting: for `Fc1ccc(-c2cnc3c(-c4nnn[nH]4)cnn3c2C2CCCCC2)cc1F` the value was 700 nM. As to `CC(C)C[C@H](NC(=O)c1cnn2c(C3CCCCC3)c(-c3ccc(F)cc3)cnc12)C(=O)O`, the IC50 worked out at 290 nM.

For the molecule `O=C(N[C@H](Cc1c[nH]c2ccccc12)C(=O)O)c1cnn2c(C3CCCCC3)c(-c3ccc(F)cc3)cnc12`, the IC50 was determined as 450 nM. Take `NC(=O)[C@H](Cc1c[nH]c2ccccc12)NC(=O)c1cnn2c(C3CCCCC3)c(-c3ccc(OCc4ccccc4)cc3)cnc12`: the IC50 was 90 nM.

Turning to `c1ccc(Oc2ccc(-c3cnc4c(-c5nnn[nH]5)cnn4c3C3CCCCC3)cc2)cc1`, the concentration for half-maximal inhibition (IC50) came out at 400 nM. On the same count and under the same terms, under `CS(=O)(=O)c1cccc(-c2ccc(-c3cnc4c(-c5nnn[nH]5)cnn4c3C3CCCCC3)cc2)c1` stands 930 nM; under `O=C(O)c1ccc(COc2ccc(-c3cnc4c(-c5nnn[nH]5)cnn4c3C3CCCCC3)cc2)cc1`, 42 nM.
